Measurements as given in ChEMBL document CHEMBL5107972 (RSC Med Chem, 2022).
In brackets after ≈: the same amount, converted by molar mass.

Assays:
Type in all cases: functional
[1] = tested on: Mycobacterium tuberculosis; test: Antitubercular activity against clinical isolate streptomycin-resistant Mycobacterium tuberculosis ATCC 35820 assessed as inhibition of bacterial growth incubated for 7 days by Presto blue resazurin microtiter plate assay; details: ATCC 35820, 168 h, time 7 day
[2] = tested on: Mycobacterium tuberculosis; test: Antitubercular activity against clinical isolate ethambutol-resistant Mycobacterium tuberculosis ATCC 35837 assessed as inhibition of bacterial growth incubated for 7 days by Presto blue resazurin microtiter plate assay; details: ATCC 35837, 168 h, time 7 day
[3] = tested on: Mycobacterium tuberculosis; test: Antitubercular activity against clinical isolate rifampicin-resistant Mycobacterium tuberculosis ATCC 35838 assessed as inhibition of bacterial growth incubated for 7 days by Presto blue resazurin microtiter plate assay; details: ATCC 35838, 168 h, time 7 day
[4] = tested on: Mycobacterium tuberculosis; test: Antitubercular activity against clinical isolate isoniazid-resistant Mycobacterium tuberculosis ATCC 35822 assessed as inhibition of bacterial growth incubated for 7 days by Presto blue resazurin microtiter plate assay; details: ATCC 35822, 168 h, time 7 day

CN[C@@H]1[C@H](O[C@H]2[C@H](O[C@H]3[C@H](O)[C@@H](O)[C@H](N=C(N)N)[C@@H](O)[C@@H]3N=C(N)N)O[C@@H](C)[C@]2(O)C=O)O[C@@H](CO)[C@H](O)[C@H]1O [STREPTOMYCIN]
MIC [1]: > 64 µg/mL | MIC [2]: 1 µg/mL (≈ 1.72 µM) | MIC [3]: 1 µg/mL (≈ 1.72 µM) | MIC [4]: 1 µg/mL (≈ 1.72 µM)

NNC(=O)c1ccncc1 [ISONIAZID]
MIC [1]: 0.03 µg/mL (≈ 0.219 µM) | MIC [2]: 0.03 µg/mL (≈ 0.219 µM) | MIC [3]: 0.03 µg/mL (≈ 0.219 µM) | MIC [4]: > 64 µg/mL

CC[C@@H](CO)NCCN[C@@H](CC)CO [ETHAMBUTOL]
MIC [1]: 2 µg/mL (≈ 9.79 µM) | MIC [2]: 32 µg/mL (≈ 157 µM) | MIC [3]: 2 µg/mL (≈ 9.79 µM) | MIC [4]: 4 µg/mL (≈ 19.6 µM)

CO[C@H]1/C=C/O[C@@]2(C)Oc3c(C)c(O)c4c(O)c(c(/C=N/N5CCN(C)CC5)c(O)c4c3C2=O)NC(=O)/C(C)=C\C=C\[C@H](C)[C@H](O)[C@@H](C)[C@@H](O)[C@@H](C)[C@H](OC(C)=O)[C@@H]1C [RIFAMPIN]
MIC [1]: 0.03 µg/mL (≈ 0.0365 µM) | MIC [2]: 0.03 µg/mL (≈ 0.0365 µM) | MIC [3]: 64 µg/mL (≈ 77.8 µM) | MIC [4]: 0.03 µg/mL (≈ 0.0365 µM)
